According to patent publication US6200999A, “3-Alkoxyisoxazol-4-yl-substituted 2-amino carboxylic acid compounds” (H. Lundbeck A/S, priority 1996, dated 2001):
Where a name gives a salt, the structure may show the parent alone.

Assays:
AMPA receptors = settings: literature; cited from earlier work
AMPA receptor = assay: Cortical wedge model, AMPA receptor (rat brain slices in vitro); format: cell-based; settings: receptor subtype AMPA; for EC50: agonists
Protocol: (§1) The Cortical wedge model is a test in which slices of rat brain is examined in vitro in order to quantify the effect of ligands at the various Glu-receptors and evaluate the pharmacological profile of the ligands (i.e. agonist/antagonist properties). The test was performed as described by Harrison, N. L. and Simmonds, M. A. Br.J.Pharmacol. 1985, 84, 381-391 as modified according to Wheatley, P. L. Br.J.Pharmacol. 1986, 87, 159P.

[1] = literature; cited from earlier work
animals = settings: literature; cited from earlier work
NMDA receptor = assay: Cortical wedge model, NMDA receptor (rat brain slices in vitro); format: cell-based; settings: receptor subtype NMDA; for pKi: antagonist
Protocol: as §1

Row | SMILES | Profile (AMPA receptor) | EC50 (AMPA receptor) | other results
1 | Cc1onc(O)c1CC(N)C(=O)O (racemic) [AMPA, (RS)-2-amino-3-(3-hydroxy-5-methylisoxazol-4-yl)propionic acid] | – | – | agonist effects at AMPA receptors (AMPA receptors): selective agonist effects at AMPA receptors
2 | CC(C)(C)c1onc(O)c1CC(N)C(=O)O (racemic) [ATPA] | – | – | systemic activity [1]: systemically active; neurotoxic effects (animals): has not been reported to show neurotoxic effects in animals
3 | CCOc1noc(C(=O)O)c1CNc1c(N)c(=O)c1=O [Compound 17, [4-(2-Amino-3,4-dioxocyclobut-1-en-1-yl)aminomethyl]-3-ethoxyisoxazole-5-carboxylic Acid] | – | – | Profile (NMDA receptor): Antagonist; pKi (NMDA receptor): 3.3
4 | NC(Cc1c(O)noc1-c1ccccc1)C(=O)O (racemic) [APPA, (RS)-2-Amino-3-(3-hydroxy-5-phenylisoxazol-4-yl)propionic acid] | – | – | agonist effects at AMPA receptors (AMPA receptors): weak but unique partial agonist profile
5 | CCCCOc1noc(C(=O)O)c1CC(N)C(=O)O (racemic) [Compound 11, (RS)-2-Amino-3-(3-butoxy-5-carboxisoxazol-4-yl)propionic Acid] | Part. Agonist | 325 µM | –
6 | Cc1onc(C(=O)O)c1CC(N)C(=O)O (racemic) [ACPA] | – | – | agonist effects at AMPA receptors (AMPA receptors): potent AMPA receptor agonist
7 | NC(Cc1c(C(=O)O)on(Cc2ccccc2)c1=O)C(=O)O (racemic) [Compound 13, (RS)-2-Amino-3-(2-benzyl-5-carboxy-2,3-dihydro-3oxisoxazol-4-yl)propionic Acid, Hydrochloride, Monohydrate] | – | – | Profile (NMDA receptor): Antagonist; pKi (NMDA receptor): 3.5

Continued, in another order:

Row | Profile (AMPA receptor) | EC50 (AMPA receptor) | SMILES | other results
8 | Agonist | 4.4 µM | CCOc1noc(C(=O)O)c1C[C@H](N)C(=O)O [(S)-2, (S)-2-Amino-3-(5-carboxy-3-ethoxyisoxazol-4-yl)propionic Acid] | –
9 | Agonist | 4.8 µM | CCOc1noc(C(=O)O)c1CC(N)C(=O)O (racemic) [Compound 2, (RS)-2-Amino-3-(5-carboxy-3-ethoxyisoxazol-4-yl)propionic Acid] | –
10 | Antagonist | – | CCOc1noc(C(=O)O)c1C[C@@H](N)C(=O)O [(R)-2, (R)-2-Amino-3-(5-carboxy-3-ethoxyisoxazol-4-yl)propionic Acid] | pKi (AMPA receptor; antagonist): 3.28
11 | Agonist | 40 µM | C=CCOc1noc(C(=O)O)c1CC(N)C(=O)O (racemic) [Compound 12, (RS)-2-Amino-3-(3-allyloxy-5-carboxyisoxazol-4-yl)propionic Acid] | –
12 | Agonist | 1.2 µM | COc1noc(C(=O)O)c1CC(N)C(=O)O.O (racemic) [Compound 1, (RS)-2-Amino-3-(5-carboxy-3-methoxyisoxazol-4-yl)propionic Acid Hydrate] | –
13 | Agonist | 40 µM | CC(C)Oc1noc(C(=O)O)c1CC(N)C(=O)O (racemic) [Compound 3, (RS)-2-Amino-3-(5-carboxy-3-isopropoxyisoxazol-4-yl)propionic Acid] | –
14 | Agonist | 2000 µM | CCOc1noc(-c2nnn[nH]2)c1CC(N)C(=O)O (racemic) [Compound 8, (RS)-2-Amino-3-[3-ethoxy-5-(5-tetrazolyl)isoxazol-4-yl]propionic acid] | –
15 | Agonist | 80 µM | CCCOc1noc(C(=O)O)c1CC(N)C(=O)O (racemic) [Compound 10, (RS)-2-Amino-3-(3-propoxy-5-carboxyisoxazol-4-yl)propionic Acid] | –
